# “Also recorded” adds a separate entry of the source.
# B1: GDNF: glia-derived neurotrophic factor (protein, UniProt P39905 78-211, looked up)
# Glial cell line-derived …: SPDKQMAVLPRRERNRQAAAANPENSRGKGRRGQRGKNRGCVLTAIHLNVTDLGLGYETKEELIFRYCSGSCDAAETTYDKILKNLSRNRRLVSDKVGQACCRPIAFDDDLSFLDDNLVYHILRKHSAKRCGCI
# B2: Neurturin: neurotrophic factor neurturin (NTN) (protein, UniProt Q99748 96-197, looked up)
# Neurturin: ARLGARPCGLRELEVRVSELGLGYASDETVLFRYCAGACEAAARVYDLGLRRLRQRRRLRRERVRAQPCCRPTAYEDEVSFLDAHSRYHTVHELSARECACV
# Assays:
# blood-brain barrier [1] = test: FUS and microbubble BBB opening: fluorescent dextran delivery to the sonicated hippocampus, quantified as NOD;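 also: male wild-type C57BL/6 mice, left hippocampus sonicated with untargeted right hippocampus as control, read by fluorescence microscopy of frozen horizontal brain sections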
# blood-brain barrier [2] = settings: mouse
# [3] = PL 3.5 cycles, PRF 6.25 kHz, BRF 0.1 Hz, BL 1000 pulses, pressure 0.51
# [4] = PL 3.5 cycles, PRF 6.25 kHz, BRF 1 Hz, BL 1000 pulses, pressure 0.51
# [5] = PL 3.5 cycles, PRF 6.25 kHz, BRF 2 Hz, BL 1000 pulses, pressure 0.51
# [6] = PL 3.5 cycles, PRF 6.25 kHz, BRF 5 Hz, BL 1000 pulses, pressure 0.51
# [7] = PL 3.5 cycles, PRF 6.25 kHz, pulses emitted continuously without bursts, pressure 0.51
# [8] = PL 3.5 cycles, PRF 25 kHz, BRF 0.1 Hz, BL 1000 pulses, pressure 0.51
# [9] = PL 3.5 cycles, PRF 25 kHz, BRF 1 Hz, BL 1000 pulses, pressure 0.51
# [10] = PL 3.5 cycles, PRF 25 kHz, BRF 2 Hz, BL 1000 pulses, pressure 0.51
# [11] = PL 3.5 cycles, PRF 25 kHz, BRF 5 Hz, BL 1000 pulses, pressure 0.51
# [12] = PL 3.5 cycles, PRF 25 kHz, BRF 10 Hz, BL 1000 pulses, pressure 0.51
# [13] = PL 3.5 cycles, PRF 25 kHz, pulses emitted continuously without bursts, pressure 0.51
# [14] = PL 3.5 cycles, PRF 100 kHz, BRF 0.1 Hz, BL 1000 pulses, pressure 0.51
# [15] = PL 3.5 cycles, PRF 100 kHz, BRF 1 Hz, BL 1000 pulses, pressure 0.51
# [16] = PL 3.5 cycles, PRF 100 kHz, BRF 2 Hz, BL 1000 pulses, pressure 0.51
# [17] = PL 3.5 cycles, PRF 100 kHz, BRF 5 Hz, BL 1 pulse, pressure 0.51
# [18] = PL 3.5 cycles, PRF 100 kHz, BRF 5 Hz, BL 5 pulses, pressure 0.51
# [19] = PL 3.5 cycles, PRF 100 kHz, BRF 5 Hz, BL 10 pulses, pressure 0.51
# [20] = PL 3.5 cycles, PRF 100 kHz, BRF 5 Hz, BL 50 pulses, pressure 0.51
# [21] = PL 3.5 cycles, PRF 100 kHz, BRF 5 Hz, BL 100 pulses, pressure 0.51
# [22] = PL 3.5 cycles, PRF 100 kHz, BRF 5 Hz, BL 500 pulses, pressure 0.51
# [23] = PL 3.5 cycles, PRF 100 kHz, BRF 5 Hz, BL 1000 pulses, pressure 0.13
# [24] = PL 3.5 cycles, PRF 100 kHz, BRF 5 Hz, BL 1000 pulses, pressure 0.25
# [25] = PL 3.5 cycles, PRF 100 kHz, BRF 5 Hz, BL 1000 pulses, pressure 0.37
# [26] = PL 3.5 cycles, PRF 100 kHz, BRF 5 Hz, BL 1000 pulses, pressure 0.51
# [27] = PL 3.5 cycles, PRF 100 kHz, BRF 10 Hz, BL 1000 pulses, pressure 0.51
# [28] = PL 3.5 cycles, PRF 100 kHz, pulses emitted continuously without bursts, pressure 0.51
# [29] = microbubble 0.01 μL/g, PRF 10 Hz, PL 20 ms, 0.46 MPa, 11-minute sonication
# [30] = microbubble 0.05 μL/g injected over 180 seconds, PRF 5 Hz, PL 0.2 ms, 0.46 MPa
# [31] = microbubble 0.05 μL/g, PRF 0.1 Hz, PL 20 ms, 0.46 MPa, 11-minute sonication
# [32] = microbubble 0.05 μL/g, PRF 1 Hz, PL 20 ms, 0.46 MPa, 11-minute sonication
# [33] = microbubble 0.05 μL/g, PRF 5 Hz, PL 0.2 ms, 0.46 MPa, 11-minute sonication
# [34] = microbubble 0.05 μL/g, PRF 5 Hz, PL 20 ms, 0.46 MPa, 11-minute sonication
# [35] = microbubble 0.05 μL/g, PRF 10 Hz, PL 0.03 ms, 0.46 MPa, 11-minute sonication
# [36] = microbubble 0.05 μL/g, PRF 10 Hz, PL 0.1 ms, 0.46 MPa, 11-minute sonication
# [37] = microbubble 0.05 μL/g, PRF 10 Hz, PL 0.2 ms, 0.46 MPa, 11-minute sonication
# [38] = microbubble 0.05 μL/g, PRF 10 Hz, PL 1 ms, 0.46 MPa, 11-minute sonication
# [39] = microbubble 0.05 μL/g, PRF 10 Hz, PL 2 ms, 0.46 MPa, 11-minute sonication
# [40] = microbubble 0.05 μL/g, PRF 10 Hz, PL 10 ms, 0.46 MPa, 11-minute sonication
# [41] = microbubble 0.05 μL/g, PRF 10 Hz, PL 20 ms, 0.46 MPa, 11-minute sonication
# [42] = microbubble 0.05 μL/g, PRF 10 Hz, PL 20 ms, 0.46 MPa, microbubble and dextran 1 minute before a 30-second sonication
# [43] = microbubble 0.05 μL/g, PRF 10 Hz, PL 30 ms, 0.46 MPa, 11-minute sonication
# [44] = microbubble 0.05 μL/g, PRF 25 Hz, PL 20 ms, 0.46 MPa, 11-minute sonication
# [45] = microbubble 0.25 μL/g, PRF 10 Hz, PL 20 ms, 0.46 MPa, 11-minute sonication
# [46] = sham mouse, no ultrasound applied, microbubble 0.05 μL/g
molecule,measurement,setting,value
dextran,increase in NOD (significance),"blood-brain barrier [1]; 100-kHz PRF, 5-Hz BRF, 0.51 MPa, 1000 pulse BL",Significant increases
same,Incidence of NOD increase,blood-brain barrier [1]; [3],2/3
same,NOD (mean ± std. dev.),blood-brain barrier [1]; [3],0.68 ± 0.47 × 1e9
same,Incidence of NOD increase,blood-brain barrier [1]; [4],2/3
same,NOD (mean ± std. dev.),blood-brain barrier [1]; [4],0.78 ± 0.85 × 1e9
same,Incidence of NOD increase,blood-brain barrier [1]; [5],1/3
same,NOD (mean ± std. dev.),blood-brain barrier [1]; [5],−0.16 ± 0.67 × 1e9
same,Incidence of NOD increase,blood-brain barrier [1]; [6],2/3
same,NOD (mean ± std. dev.),blood-brain barrier [1]; [6],0.56 ± 0.95 × 1e9
same,Incidence of NOD increase,blood-brain barrier [1]; [7],1/3
same,NOD (mean ± std. dev.),blood-brain barrier [1]; [7],−0.11 ± 0.35 × 1e9
same,Incidence of NOD increase,blood-brain barrier [1]; [8],2/3
same,NOD (mean ± std. dev.),blood-brain barrier [1]; [8],0.35 ± 0.10 × 1e9
same,Incidence of NOD increase,blood-brain barrier [1]; [9],3/3
same,NOD (mean ± std. dev.),blood-brain barrier [1]; [9],1.92 ± 0.10 × 1e9
same,Incidence of NOD increase,blood-brain barrier [1]; [10],3/3
same,NOD (mean ± std. dev.),blood-brain barrier [1]; [10],3.34 ± 1.35 × 1e9
same,Incidence of NOD increase,blood-brain barrier [1]; [11],3/3
same,NOD (mean ± std. dev.),blood-brain barrier [1]; [11],1.48 ± 0.77 × 1e9
same,Incidence of NOD increase,blood-brain barrier [1]; [12],2/3
same,NOD (mean ± std. dev.),blood-brain barrier [1]; [12],1.31 ± 1.35 × 1e9
same,Incidence of NOD increase,blood-brain barrier [1]; [13],1/3
same,NOD (mean ± std. dev.),blood-brain barrier [1]; [13],0.30 ± 0.20 × 1e9
same,Incidence of NOD increase,blood-brain barrier [1]; [14],2/3
same,NOD (mean ± std. dev.),blood-brain barrier [1]; [14],0.99 ± 0.85 × 1e9
same,Incidence of NOD increase,blood-brain barrier [1]; [15],3/3
same,NOD (mean ± std. dev.),blood-brain barrier [1]; [15],1.45 ± 0.73 × 1e9
same,Incidence of NOD increase,blood-brain barrier [1]; [16],3/3
same,NOD (mean ± std. dev.),blood-brain barrier [1]; [16],3.08 ± 2.76 × 1e9
same,Incidence of NOD increase,blood-brain barrier [1]; [17],0/3
same,NOD (mean ± std. dev.),blood-brain barrier [1]; [17],0.01 ± 0.11 × 1e9
same,Incidence of NOD increase,blood-brain barrier [1]; [18],1/3
same,NOD (mean ± std. dev.),blood-brain barrier [1]; [18],0.13 ± 0.17 × 1e9
same,Incidence of NOD increase,blood-brain barrier [1]; [19],3/3
same,NOD (mean ± std. dev.),blood-brain barrier [1]; [19],2.14 ± 1.33 × 1e9
same,Incidence of NOD increase,blood-brain barrier [1]; [20],3/3
same,NOD (mean ± std. dev.),blood-brain barrier [1]; [20],2.20 ± 0.54 × 1e9
same,Incidence of NOD increase,blood-brain barrier [1]; [21],3/3
same,NOD (mean ± std. dev.),blood-brain barrier [1]; [21],3.60 ± 0.95 × 1e9
same,Incidence of NOD increase,blood-brain barrier [1]; [22],3/3
same,NOD (mean ± std. dev.),blood-brain barrier [1]; [22],3.30 ± 0.58 × 1e9
same,Incidence of NOD increase,blood-brain barrier [1]; [23],1/3
same,NOD (mean ± std. dev.),blood-brain barrier [1]; [23],0.10 ± 0.21 × 1e9
same,Incidence of NOD increase,blood-brain barrier [1]; [24],1/3
same,NOD (mean ± std. dev.),blood-brain barrier [1]; [24],0.10 ± 0.16 × 1e9
same,Incidence of NOD increase,blood-brain barrier [1]; [25],2/3
same,NOD (mean ± std. dev.),blood-brain barrier [1]; [25],0.60 ± 0.48 × 1e9
same,Incidence of NOD increase,blood-brain barrier [1]; [26],3/3
same,NOD (mean ± std. dev.),blood-brain barrier [1]; [26],6.14 ± 1.45 × 1e9
same,Incidence of NOD increase,blood-brain barrier [1]; [27],3/3
same,NOD (mean ± std. dev.),blood-brain barrier [1]; [27],2.01 ± 1.44 × 1e9
same,Incidence of NOD increase,blood-brain barrier [1]; [28],1/3
same,NOD (mean ± std. dev.),blood-brain barrier [1]; [28],0.21 ± 0.32 × 1e9
same,spatial distribution of delivered dextran fluorescence in the target ROI,"blood-brain barrier [1]; bursts of 3.5-cycle pulses, 100-kHz PRF, 5-Hz BRF, 0.51 MPa, 1000 pulse BL, listed as 3-kDa dextran",distributed most homogeneously and across a larger area than the other two molecular weights; also recorded: homogeneous and diffuse spatial distribution
same,NOD (mean ± std. dev.),blood-brain barrier [1]; [29],2.89 ± 1.99 × 1e9
same,Number of mice with delivered dextran,blood-brain barrier [1]; [29],5/5
same,NOD (mean ± std. dev.),blood-brain barrier [1]; [30],1.58 ± 1.37 × 1e9
same,Number of mice with delivered dextran,blood-brain barrier [1]; [30],5/5
same,NOD (mean ± std. dev.),blood-brain barrier [1]; [31],−0.17 ± 0.17 × 1e9
same,Number of mice with delivered dextran,blood-brain barrier [1]; [31],0/5
same,NOD (mean ± std. dev.),blood-brain barrier [1]; [32],3.77 ± 4.52 × 1e9
same,Number of mice with delivered dextran,blood-brain barrier [1]; [32],3/5
same,NOD (mean ± std. dev.),blood-brain barrier [1]; [33],2.02 ± 1.38 × 1e9
same,Number of mice with delivered dextran,blood-brain barrier [1]; [33],5/5
same,NOD (mean ± std. dev.),blood-brain barrier [1]; [34],4.21 ± 2.05 × 1e9
same,Number of mice with delivered dextran,blood-brain barrier [1]; [34],5/5
same,NOD (mean ± std. dev.),blood-brain barrier [1]; [35],0.78 ± 1.41 × 1e9
same,Number of mice with delivered dextran,blood-brain barrier [1]; [35],2/5
same,NOD (mean ± std. dev.),blood-brain barrier [1]; [36],1.20 ± 1.05 × 1e9
same,Number of mice with delivered dextran,blood-brain barrier [1]; [36],5/6
same,NOD (mean ± std. dev.),blood-brain barrier [1]; [37],0.98 ± 0.67 × 1e9
same,Number of mice with delivered dextran,blood-brain barrier [1]; [37],5/5
same,NOD (mean ± std. dev.),blood-brain barrier [1]; [38],4.07 ± 3.71 × 1e9
same,Number of mice with delivered dextran,blood-brain barrier [1]; [38],5/5
same,NOD (mean ± std. dev.),blood-brain barrier [1]; [39],1.84 ± 1.44 × 1e9
same,Number of mice with delivered dextran,blood-brain barrier [1]; [39],4/5
same,NOD (mean ± std. dev.),blood-brain barrier [1]; [40],4.76 ± 2.03 × 1e9
same,Number of mice with delivered dextran,blood-brain barrier [1]; [40],5/5
same,NOD (mean ± std. dev.),blood-brain barrier [1]; [41],4.45 ± 2.08 × 1e9
same,Number of mice with delivered dextran,blood-brain barrier [1]; [41],5/5
same,NOD (mean ± std. dev.),blood-brain barrier [1]; [42],4.91 ± 0.94 × 1e9
same,Number of mice with delivered dextran,blood-brain barrier [1]; [42],5/5
same,NOD (mean ± std. dev.),blood-brain barrier [1]; [43],5.77 ± 1.73 × 1e9
same,Number of mice with delivered dextran,blood-brain barrier [1]; [43],5/5
same,NOD (mean ± std. dev.),blood-brain barrier [1]; [44],4.58 ± 1.40 × 1e9
same,Number of mice with delivered dextran,blood-brain barrier [1]; [44],5/5
same,NOD (mean ± std. dev.),blood-brain barrier [1]; [45],5.34 ± 2.12 × 1e9
same,Number of mice with delivered dextran,blood-brain barrier [1]; [45],5/5
same,NOD (mean ± std. dev.),blood-brain barrier [1]; [46],0.01 ± 0.23 × 1e9
same,Number of mice with delivered dextran,blood-brain barrier [1]; [46],0/5
B1,permeation through the FUS-opened BBB into the parenchyma,blood-brain barrier [2],does not
same,"fluorescence post-mortem in brain, kidneys, liver, bladder or testes",blood-brain barrier [2]; in vivo,no fluorescence was found
same,time within which the protein may be broken down in circulation,blood-brain barrier [2]; in vivo,≤ 45 s
B2,permeation through the FUS-opened BBB into the parenchyma,blood-brain barrier [2],permeating through the opened barrier and into the parenchyma
